Laboratory results: patent EP4768487A1, “FUSED LACTAM RING COMPOUND AND USE THEREOF” (Chengdu Zenitar Biomedical Technology Co., Ltd., priority 2023, dated 2025)

Each compound was assayed against T1, PARP1 (Homo sapiens, UniProt P09874) (assay: PARP1 enzyme assay (histone-coated plate, chemiluminescence)). Conditions: PARP1 0.02 nM, DNA 0.8 nM, NAD+ 3.5 µM; read-out: PARP-1 IC50.
T1 construct: purchased BPS 80501
Type: biochemical
Procedure: 1.1.1. Buffer preparation: PBST: 1× PBS, 0.05% Tween-20; blocking buffer: 1× PBS, 0.05% Tween-20, 5% BSA; reaction buffer: 50 mM Tris-HCl (pH 7.5), 0.005% Tween-20, 0.01% BSA.
1.1.2. Coating: A 50 ng/mL Histone coating solution was prepared with 1× PBS and then transferred to a 384-well reaction plate at 25 µL/well. The plate was coated at 4 °C overnight.
1.1.3. Washing: After the coating was completed, the coating solution was discarded, and the plate was washed with the PBST solution. The method was as follows: PBST was transferred to the 384-well reaction plate at 50 µL/well, and the plate was left to stand for 5 min. The washing solution was then discarded, and the plate was refilled. The washing step was repeated 3 times. Finally, the reaction plate was patted dry and left for the next step of blocking.
1.1.4. Blocking: The blocking buffer was transferred to the 384-well reaction plate at 50 µL/well, and the plate was left to stand for 1 h.
Washing: After the blocking was completed, the blocking buffer was discarded, and the plate was washed 3 times with the PBST solution according to the method in step 2. Finally, the reaction plate was patted dry.
1.1.5. A 1000-fold solution of a compound was prepared and then transferred at 1 µL/well to a 96-well plate containing 199 µL of the reaction buffer. The mixture was well mixed, and then the well mixed compound solution was transferred to the 384-well reaction plate at 5 µL/well. 1.1.6. A 25/10-fold PARP1-DNA solution was prepared with the reaction buffer and then transferred to the 384-well reaction plate at 10 µL/well. For the negative control wells, 10 µL
of the DNA solution was transferred. The final concentrations of PARP1 and DNA were 0.02 nM and 0.8 nM, respectively.
1.1.9. Washing: After the reaction was completed, the reaction solution was discarded, and the plate was washed 3 times with the PBST solution according to the method in step 2. Finally, the reaction plate was patted dry.
1.1.10. A primary antibody (anti-Poly/Mono-ADP Ribose Rabbit mAb) was diluted 2000-fold with the blocking buffer and then added at 20 µL/well.
1.1.11. Washing: The primary antibody was discarded, and the plate was washed 3 times with the PBST solution according to the method in step 2. Finally, the reaction plate was patted dry.
1.1.12. A secondary antibody (anti-rabbit IgG, HRP-linked Antibody) was diluted 2000-fold with the blocking buffer and then added at 20 µL/well.
1.1.13. Washing: The secondary antibody was discarded, and the plate was washed 3 times with the PBST solution according to the method in step 2. Finally, the reaction plate was patted dry.
1.1.14. Color development: Femto-ECL Substrate A and Femto-ECL Substrate B were mixed at a ratio of 1:1, and the mixture was transferred to the 384-well reaction plate at 25 µL/well. 1.1.15. Reading: The chemiluminescence values (RLU) were measured using Envision.

T1 sequence (P09874 whole entry): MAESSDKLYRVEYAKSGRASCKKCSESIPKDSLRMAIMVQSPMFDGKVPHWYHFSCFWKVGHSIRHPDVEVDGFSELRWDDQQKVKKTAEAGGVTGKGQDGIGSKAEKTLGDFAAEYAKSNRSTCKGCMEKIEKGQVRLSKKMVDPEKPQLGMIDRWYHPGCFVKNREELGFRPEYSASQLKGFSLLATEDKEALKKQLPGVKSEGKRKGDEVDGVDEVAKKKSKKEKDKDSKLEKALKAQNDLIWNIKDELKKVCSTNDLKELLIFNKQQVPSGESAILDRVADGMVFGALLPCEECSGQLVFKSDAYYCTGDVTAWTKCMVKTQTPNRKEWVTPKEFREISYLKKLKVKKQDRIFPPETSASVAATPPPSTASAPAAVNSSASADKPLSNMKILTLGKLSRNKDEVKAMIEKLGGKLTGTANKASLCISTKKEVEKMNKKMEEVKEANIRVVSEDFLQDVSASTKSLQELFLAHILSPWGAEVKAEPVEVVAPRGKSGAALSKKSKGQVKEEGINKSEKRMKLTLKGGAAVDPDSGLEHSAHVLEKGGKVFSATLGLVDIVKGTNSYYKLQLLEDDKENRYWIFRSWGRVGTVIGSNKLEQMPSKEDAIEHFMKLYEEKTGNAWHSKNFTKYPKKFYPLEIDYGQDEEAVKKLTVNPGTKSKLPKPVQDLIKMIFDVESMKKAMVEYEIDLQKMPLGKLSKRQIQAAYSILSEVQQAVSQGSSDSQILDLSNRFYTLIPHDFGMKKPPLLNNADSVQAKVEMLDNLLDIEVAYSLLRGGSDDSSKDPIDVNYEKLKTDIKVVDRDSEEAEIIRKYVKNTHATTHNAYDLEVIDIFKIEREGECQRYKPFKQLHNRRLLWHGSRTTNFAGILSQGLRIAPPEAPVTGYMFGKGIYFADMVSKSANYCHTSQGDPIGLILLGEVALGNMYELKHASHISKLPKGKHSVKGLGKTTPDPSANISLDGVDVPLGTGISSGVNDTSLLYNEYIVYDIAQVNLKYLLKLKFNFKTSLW

IC50 [nM]	Structure (SMILES)
≤ 50	CCc1cc2c([nH]c1=O)CC(CN1CCN(c3ccc(C(=O)NC)nc3C)CC1)CC2 (centres unmarked) [Compound 17, 5-(4-((3-Ethyl-2-oxo-1,2,5,6 ,7,8-hexahydroquinoline-7-yl)methyl)piperazin-1-yl)-N,6-dimethylpicolinamide]
≤ 50	CCc1nc2c([nH]c1=O)C[C@@H](CN1CCN3c4ccc(C(=O)NC)nc4COC[C@H]3C1)CC2 [Example 105]
≤ 50	CCc1cc2c([nH]c1=O)CC(CN1CCN(c3ccc(C(=O)NC4CC4)nc3)CC1)CC2 (centres unmarked) [Compound 20, N-Cyclopropyl-5-(4-((3-ethyl-2-oxo-1,2,5,6,7,8-hexahydroquinoline-7-yl)methyl)piperazin-1-yl)picolinamide]
≤ 50	[2H]C([2H])([2H])NC(=O)c1ccc(N2CCN(CC3CCc4cc(CC)c(=O)[nH]c4C3)CC2)cn1 (centres unmarked) [Compound 18, 5-(4-((3-Ethyl-2-oxo-1,2,5,6 ,7,8-hexahydroquinoline-7-yl)methyl)piperazin-1-yl)-N-(methyl-d3)picolinamide]
50 to 500	CCc1cc2c([nH]c1=O)CC(CN1CCN(c3ccc(C(=O)NC)nc3F)C[C@@H]1C)OC2 (stereo partly drawn) [Example 72, 5-((3S)-4-((3-Ethyl-2-oxo-1,5,7,8-tetrahydro-2H-pyrano[4,3-b]pyridin-7-yl)methyl)-3-methylpiperazin-1-yl)-6-fluoro-N-methylpicolinamide]
≤ 50	CCc1cc2c([nH]c1=O)CC(CN1CCN(c3ccc(C(=O)NC)nc3F)CC1)CC2 (centres unmarked) [Compound 16, 5-(4-((3-Ethyl-2-oxo-1,2,5,6 ,7,8-hexahydroquinoline-7-yl)methyl)piperazin-1-yl)-6-fl uoro-N-methylpicolinamide]
≤ 50	CCc1cc2c([nH]c1=O)CC(CN1CCN(c3ccc(C(=O)NCC(F)F)nc3F)CC1)CC2 (centres unmarked) [Compound 22, N-(2,2-Difluoroethyl)-5-(4-( (3-ethyl-2-oxo-1,2,5,6,7,8-hexahydroquinoline-7-yl)methyl)piperazin-1-yl)-6-fluoro picolinamide]
≤ 50	CCc1cc2c([nH]c1=O)CC(CN1CCN(c3ccc(C(=O)NC4CC4)nc3F)CC1)CC2 (centres unmarked) [Compound 21, N-Cyclopropyl-5-(4-((3-ethyl-2-oxo-1,2,5,6,7,8-hexahydroquinoline-7-yl)methyl)piperazin-1-yl)-6-fluoropicoli namide]
50 to 500	CCc1cc2c([nH]c1=O)CC(CN1CCN(c3ccc(C(=O)NC)nc3F)C[C@H]1C)OC2 (stereo partly drawn) [Example 75, 5-((3R)-4-((3-Ethyl-2-oxo-1,5,7,8-tetrahydro-2H-pyrano[4,3-b]pyridin-7-yl)methyl)-3-methylpiperazin-1-yl)-6-fluoro-N-methylpicolinamide]
≤ 50	[2H]C([2H])([2H])NC(=O)c1ccc(N2CCN(CC3CCc4cc(CC)c(=O)[nH]c4C3)CC2)c(F)n1 (centres unmarked) [Compound 19, 5-(4-((3-Ethyl-2-oxo-1,2,5,6 ,7,8-hexahydroquinoline-7-yl)methyl)piperazin-1-yl)-6-fl uoro-N-(methyl-d3)picolinamide]
≤ 50	CNC(=O)c1ccc(N2CCN(C[C@@H]3Cc4[nH]c(=O)c(C)cc4CO3)CC2)c(Cl)n1 [Example 94, (S)-6-Chloro-N-methyl-5-(4-((3-methyl-2-oxo-1,5,7,8-tetrahydro-2H-pyrano[4,3-b]pyridin-7-yl)methyl)piperazin-1-yl)picolinamide]
≤ 50	CCc1cc2c([nH]c1=O)CC(CN1CCN(c3ccc(C(=O)NC)nc3)CC1)CC2 (centres unmarked) [Compound 15, 5-(4-((3-Ethyl-2-oxo-1,2,5,6 ,7,8-hexahydroquinoline-7-yl)methyl)piperazin-1-yl)-N-methylpicolinamide]

Structure (SMILES)	IC50 [nM]
CCc1cc2c([nH]c1=O)CC(CN1CC=C(c3ccc(C(=O)NCC(F)F)nc3F)CC1)CC2 (centres unmarked) [Compound 30, N-(2,2-Difluoroethyl)-1'-((3-ethyl-2-oxo-1,2,5,6,7,8-hexahydroquinoline-7-yl)methyl)-2-fluoro-1',2',3',6'-tetrahy dro-[3,4'-bipyridine]-6-carb oxamide]	≤ 50
CCc1cc2c([nH]c1=O)CC(CN1CC=C(c3ccc(C(=O)NC)nc3F)CC1)CC2 (centres unmarked) [Compound 24, 1'-((3-Ethyl-2-oxo-1,2,5,6,7,8-hexahydroquinoline-7-yl)methyl)-2-fluoro-N-methyl-1',2',3',6'-tetrahydro-[3,4'-bipyridine]-6-carboxamide]	≤ 50
CCc1cc2c([nH]c1=O)CC(CN1CC=C(c3ccc(C(=O)NC4CC4)nc3)CC1)CC2 (centres unmarked) [Compound 28, N-Cyclopropyl-1'-((3-ethyl-2-oxo-1,2,5,6,7,8-hexahydroquinoline-7-yl)methyl)-1',2', 3',6'-tetrahydro-[3,4'-bipyridine]-6-carboxamide]	≤ 50
CCc1cc2c([nH]c1=O)CC(CN1CC=C(c3ccc(C(=O)NC4CC4)nc3)CC1)OC2 (centres unmarked) [Compound 8, N-Cyclopropyl-1'-((3-ethyl-2-oxo-1,5,7,8-tetrahydro-2H -pyrano[4,3-b]pyridin-7-yl)methyl)-1',2',3',6'-tetrahydro-[3,4'-bipyridine]-6-carboxamide]	≤ 50
CCc1cc2c([nH]c1=O)CC(CN1CC=C(c3ccc(C(=O)NC4CC4)nc3F)CC1)CC2 (centres unmarked) [Compound 29, N-Cyclopropyl-1'-((3-ethyl-2-oxo-1,2,5,6,7,8-hexahydroquinoline-7-yl)methyl)-2-flu oro-1',2',3',6'-tetrahydro-[3,4 '-bipyridine]-6-carboxamide]	≤ 50
[2H]C([2H])([2H])NC(=O)c1ccc(C2=CCN(CC3CCc4cc(CC)c(=O)[nH]c4C3)CC2)cn1 (centres unmarked) [Compound 26, 1'-((3-Ethyl-2-oxo-1,2,5,6,7,8-hexahydroquinoline-7-yl)methyl)-N-(methyl-d3)-1',2', 3',6'-tetrahydro-[3,4'-bipyridine]-6-carboxamide]	≤ 50
CCc1cc2c([nH]c1=O)CC(CN1CC=C(c3ccc(C(=O)NC)nc3)CC1)CC2 (centres unmarked) [Compound 23, 1'-((3-Ethyl-2-oxo-1,2,5,6,7,8-hexahydroquinoline-7-yl)methyl)-N-methyl-1',2',3',6'-tetrahydro-[3,4'-bipyridine]-6-carboxamide]	≤ 50
CCc1cc2c([nH]c1=O)CC(CN1CC=C(c3ccc(C(=O)NC)nc3C)CC1)CC2 (centres unmarked) [Compound 25, 1'-((3-Ethyl-2-oxo-1,2,5,6,7,8-hexahydroquinoline-7-yl)methyl)-N,2-dimethyl-1',2',3 ',6'-tetrahydro-[3,4'-bipyridine]-6-carboxamide]	≤ 50
CCc1cc2c([nH]c1=O)CC(CN1CC=C(c3ccc(C(=O)NC4CC4)nc3F)CC1)OC2 (centres unmarked) [Compound 7, N-Cyclopropyl-1'-((3-ethyl-2-oxo-1,5,7,8-tetrahydro-2H -pyrano[4,3-b]pyridin-7-yl)methyl)-2-fluoro-1',2',3',6'-tetrahydro-[3,4'-bipyridine]-6-carboxamide]	≤ 50
[2H]C([2H])([2H])NC(=O)c1ccc(C2=CCN(CC3CCc4cc(CC)c(=O)[nH]c4C3)CC2)c(F)n1 (centres unmarked) [Compound 27, 1'-((3-Ethyl-2-oxo-1,2,5,6,7,8-hexahydroquinoline-7-yl)methyl)-2-fluoro-N-(methyl-d3)-1',2',3',6'-tetrahydro-[3,4' -bipyridine]-6-carboxamide]	≤ 50

Each compound was assayed on BRCA wild-type DLD-1 cells (assay: Anti-proliferative activity against cells (CCK8): DLD-1). Conditions: Homo sapiens, 72 h + 96 h culture.
Type: cell-based
Procedure: BRCA wild-type DLD-1 cells were cultured in an RPMI-1640 medium containing 10% fetal bovine serum, 100 U/mL penicillin, and 100 µg/mL streptomycin, and incubated in an incubator with 5% saturated CO2 at 37 °C. When the cells grew to 80% confluence, they were collected, centrifuged at 300 g for 10 min, and then plated onto a 96-well plate at 1000 cells/well. After 24 h, different final concentrations (0 µM, 1 µM, and 10 µM) of PARPi were added, and the cells were cultured for another 72 h. The cells were subjected to medium exchange treatment (re-supplemented with PARPi at the same final concentrations) and then cultured for another 96 h. The 96-well plate was taken out.

Structure (SMILES)	IC50 [nM]
[2H]C([2H])([2H])NC(=O)c1ccc(N2CCN(C([2H])([2H])[C@H]3CCc4nc(C)c(=O)[nH]c4C3)CC2)c(F)n1 [Example 84, (S)-6-Fluoro-N-(methyl-d3)-5-(4-((2-methyl-3-oxo-3,4,5,6,7,8-hexahydroquinoxalin-6-yl)methyl-d2)piperazin-1-yl)picolinamide]	> 1000
